Reference: publication PMC8373063 (2021)

How the values were obtained:
[1] = test system: DNA Seq6 (DNA, single strand) TGAAGGAAGGT; assay: fluorescence polarization; details: 100 mM NaCl, 1 mM MgCl2; 20 mM HEPES, 25 °C, 0.5 μM compound
[2] = test system: RNA Seq6 (RNA, single strand) UGAAGGAAGGU; assay: fluorescence polarization; details: 100 mM NaCl; 20 mM HEPES, 25 °C, 0.5 μM compound
[3] = test system: DNA Seq6 (DNA, single strand) TGAAGGAAGGT; assay: fluorescence polarization; details: 100 mM NaCl, 1 mM MgCl2; 20 mM HEPES, 25 °C, 0.5 μM compound; remark: listed apart in the source
[4] = test system: DNA Seq6 (DNA, single strand) TGAAGGAAGGT; assay: competitive fluorescence polarization; details: 100 mM NaCl, 1 mM MgCl2, 20 mM HEPES, tracer 0.5 μM SMN-C2 displaced from 25 μM DNA Seq6
[5] = test system: RNA Seq4 (immobilised) (RNA, single strand) AAGAAGGAAGGUGC; assay: SPR, immobilised RNA; details: running buffer not shown; SMN-C5 up to 40 μM
[6] = test system: RNA Seq4 (RNA, single strand) AAGAAGGAAGGUGC; assay: fluorescence polarization; details: 100 mM NaCl; 20 mM HEPES, 25 °C, 0.5 μM compound
[7] = test system: RNA Seq6 (RNA, single strand) UGAAGGAAGGU; assay: fluorescence polarization; details: 100 mM NaCl; 20 mM HEPES, 25 °C, 0.5 μM compound; remark: listed apart in the source

| Structure (SMILES) | Kd [1] | Kd [2] | also measured |
| --- | --- | --- | --- |
| CN1CCN(c2cc(F)c3cc(-c4ccc(Cl)cc4)c(=O)oc3c2)CC1 | 9.9 ± 0.9 µM | 30.9 ± 6.7 µM | – |
| CN1CCN(c2cc(F)c3cc(-c4cccc(Cl)c4)c(=O)oc3c2)CC1 | 18.7 ± 4.0 µM | 32.8 ± 5.6 µM | – |
| CN1CCN(c2ccc3cc(-c4ccc(Cl)cc4)c(=O)oc3c2)CC1 | 8.2 ± 0.7 µM | 30.6 ± 12.3 µM | – |
| CN1CCN(c2ccc3cc(-c4cccc(Cl)c4)c(=O)oc3c2)CC1 | 13.9 ± 1.1 µM | 35.9 ± 14.8 µM | – |
| CN1CCN(c2ccc3cc(-c4ccccc4Cl)c(=O)oc3c2)CC1 | – | > >100 μM | Kd [3]: > 100 µM |
| COc1cn2cc(-c3cc4ccc(N5CCNCC5)cc4oc3=O)nc2cn1 | – | 11.4 ± 0.7 µM | Kd [3]: 1.4 ± 0.2 µM |
| Cc1c(-c2ccc(Cl)cc2)c(=O)oc2cc(N3CCN(C)CC3)ccc12 | > >100 μM | > >100 μM | – |
| Cc1c(-c2cccc(Cl)c2)c(=O)oc2cc(N3CCN(C)CC3)ccc12 | > >100 μM | > >100 μM | – |
| Cc1cn2cc(-c3cc(=O)n4cc(N5CCN(C)CC5)ccc4n3)cc(F)c2n1 | – | – | apparent Kd [4]: 5.8 ± 2.5 µM; Kd [5]: 8.0 µM |
| Cc1cn2cc(-c3cc4ccc(N5CCN(CCNC(=O)OC(C)(C)C)[C@@H](C)C5)cc4oc3=O)nc2c(C)n1 | 4.0 ± 0.3 µM | 51.2 ± 4.9 µM | Kd [6]: 37.5 ± 14.0 µM |
| Cc1cn2cc(-c3cc4ccc(N5CCN[C@@H](C)C5)cc4oc3=O)nc2c(C)n1 | – | – | Kd [6]: 25.4 ± 7.3 µM; Kd [7]: 18.5 ± 5.4 µM; Kd [3]: 2.9 ± 0.3 µM |
| O=c1oc2cc(N3CCNCC3)ccc2cc1-c1cn2ccccc2n1 | 2.8 ± 0.5 µM | 14.5 ± 2.3 µM | – |
